Data published in the METLIN SMRT retention time set (Domingo-Almenara et al. 2019).

Assay: gradient 5% acetonitrile 3 min, to 50% in 2 min, to 85% in 15 min, held 3 min, 100 µL/min
Details: column: Zorbax Extend-C18 2.1 x 50 mm; eluents: water / acetonitrile, 0.1% formic acid
Outline: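 Standards, all pure, were combined into mixtures of ~100 molecules and run at 100 μL/min on a Zorbax Extend-C18 column (2.1 × 50 mm, 1.8 μm) with water and acetonitrile, each containing 0.1% formic acid. A coupled quadrupole time-of-flight mass spectrometer operated in positive and negative ionization mode. Retention time values come from computationally picked adduct peaks, each inspected manually.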

Row | RP-LC retention time [s] | SMILES
1 | 812 | CC(C)Cn1cc(CCNC(=O)Nc2ccc(F)cc2)c2cccnc21
2 | 865 | CCOC(=O)c1c(C)c(CCC(=O)NCc2ccc3c(c2)OCO3)c(C)n1C
3 | 665 | COC(=O)Nc1ccc(-c2nc(N3CCOCC3)c3cnn(C4CCN(Cc5cccnc5)CC4)c3n2)cc1
4 | 1080 | CCn1ccc2cc(S(=O)(=O)N3CCCC(C(=O)NC4CCCCCC4)C3)ccc21 (stereo not drawn)
5 | 795 | COc1ccc(C)cc1NC(=O)[C@@H]1[C@H](c2cc(OC)c(OC)c(OC)c2)c2cc3c(cc2[C@H](O)[C@H]1CO)OCO3
6 | 830 | CC(C)C(=O)Oc1ccc(CO)cc1[C@H](CCN(C(C)C)C(C)C)c1ccccc1
7 | 710 | CCOc1ccc(-n2ccn3c(CC(C)CC(=O)NC4CCCC4)nnc3c2=O)cc1 (stereo not drawn)
8 | 822 | O=C(NCC(=O)N1CCCc2ccccc21)c1ccccc1Br
9 | 1000 | C=CCN(c1ccccc1)c1nc(C(=O)OCC)nc2ccccc12
10 | 566 | O=C(Nc1ccccc1Br)N1CCc2nc[nH]c2C1
11 | 643 | CCN(CC)C(=O)CCC1CCCN(c2cc(NC3CC3)ncn2)C1 (stereo not drawn)
12 | 724 | CCOc1ccc(Br)cc1S(=O)(=O)Nc1ccc(-c2cn3ccc(C)nc3n2)cc1
13 | 687 | CCc1noc(-c2ccnc(-n3ncc(C(=O)NC4CCCC4)c3C)c2)n1
14 | 770 | CCCN(CC(=O)N(Cc1ccco1)CC1CCCO1)C(=O)c1ccc2c(c1)OCO2 (stereo not drawn)
15 | 884 | CCn1cc(-c2nc(C)c(C(=O)NCc3cc(F)cc(F)c3)s2)c2cccnc21
16 | 904 | CC(C)c1nnc(-c2coc(S(=O)(=O)N3CCCCC3C)c2)o1 (stereo not drawn)
17 | 560 | COCCCNC(=O)N1CCN(Cc2nc3cc(C(=O)N(C)C)ccc3n2C)CC1
18 | 730 | O=C(c1ccc2[nH]ccc2c1)N1C[C@@H]2C[C@H]1C[C@@H]2NS(=O)(=O)c1ccccc1
19 | 787 | O=C(Nc1ccc2c(c1)OCO2)N1CCC(N2CCN(Cc3ccccc3)C2=O)CC1
20 | 804 | O=C(c1cn2cc(Cl)ccc2n1)N1CCN(c2ccccc2)CC1
21 | 801 | COc1ccc(N2CCN(C(=O)c3ccc4c(c3)CC(=O)N4C)CC2)cc1
22 | 580 | COc1ccc(CN2CCC(C3CCN(S(C)(=O)=O)CC3)C2)cc1OC (stereo not drawn)

Row | RP-LC retention time [s] | SMILES
23 | 624 | O=C(CCc1ccccc1)N1CCN(c2nc(CN3CCOCC3)cs2)CC1
24 | 653 | CCN(CC)S(=O)(=O)c1ccc2c(c1)N(CC(=O)NCc1cccnc1)C(=O)C1CCCCN21 (stereo not drawn)
25 | 719 | O=C(NCCc1csc(C2CCCN(C(=O)C3CCC3)C2)n1)C1CCC1 (stereo not drawn)
26 | 988 | CCCOc1ccc(CNC(=O)C2CCN(c3cc(Oc4ccccc4)ncn3)CC2)cc1
27 | 900 | Cc1ccc(CNC(=O)Cn2c(=O)c(S(=O)(=O)c3ccccc3)cc3ccccc32)cc1
28 | 780 | CCCn1c(=O)sc2cc(S(=O)(=O)N3CCC(C(=O)Nc4ccccn4)CC3)ccc21
29 | 659 | CCOc1ccc(S(=O)(=O)N2CCCC(C(=O)NCc3ccncc3)C2)cc1C (stereo not drawn)
30 | 669 | Cc1ccc(NC(=O)Cn2c(N3CCCC3)nc(C)cc2=O)c(C)c1
31 | 663 | COc1ccc(NC(=O)N2CCC(c3nc(C(=O)N4CCOCC4)c(C)o3)CC2)c(C)c1
32 | 831 | CC(C)(C)C(=O)N1CCOC(c2ccccc2)C1 (stereo not drawn)
33 | 934 | Cc1cccc(NC(=O)Cn2nc3c(Oc4cc(C)cc(C)c4)nccn3c2=O)c1
34 | 857 | O=C(NCCc1ccco1)c1cc2n(n1)CCCN(Cc1ccc(Cl)cc1)C2=O
35 | 706 | O=C1CCCc2cc(S(=O)(=O)N3CCC(C(=O)NCc4ccc5c(c4)OCO5)CC3)ccc2N1
36 | 608 | CC(C)C(=O)N1CCc2cc(-c3ccc(C(=O)NCCN4CCN(C)CC4)cc3)ccc21
37 | 678 | CCOC(=O)CC(=O)CSc1nnc(CNC(=O)c2ccc(F)cc2)o1
38 | 1030 | CCn1nc(C)c2c(-c3ccccc3)cc(OC(C)C(=O)Nc3ccc(C(C)=O)cc3)nc21 (stereo not drawn)
39 | 865 | COc1ccc2[nH]cc(CCNC(=O)c3ccc(SC)cc3OC)c2c1
40 | 904 | COc1ccc(OC)c(CNC(=O)c2c(N3CCCC3=O)c3cc(F)ccc3n2C)c1
41 | 732 | CCCn1c(C)cnc1C1CN(S(=O)(=O)c2ccc(Cl)c(C)c2)C1
42 | 791 | Cc1cc2nc(C(=O)OC(C)C)c(N3CCN(c4ccccn4)CC3)nc2cc1C
43 | 807 | CS(=O)(=O)N1CCC(C(=O)NCc2ccccc2)Oc2ccccc21 (stereo not drawn)
44 | 571 | O=C(C1CCN(c2cn[nH]c(=O)c2)C1)N1CCCC1 (stereo not drawn)

Row | RP-LC retention time [s] | SMILES
45 | 693 | COc1ccc(-c2cn3c(CC(=O)NCc4ccccc4)csc3n2)cc1OC
46 | 634 | c1ccc2c(c1)Nc1ccncc1S2
47 | 734 | O=C(NCCOc1ccc(-c2cccs2)nn1)NCc1ccccc1
48 | 683 | CCCNC(=O)CC1Sc2ncccc2N(CCC)C1=O (stereo not drawn)
49 | 705 | CN(CC#N)C(=O)Cn1c(=O)c2cccn2c2ccccc21
50 | 756 | COc1ccc(NC(=O)Cn2c(=O)c(CCC(=O)NCC(C)C)nc3ccccc32)cc1OC
51 | 877 | O=C1CN(S(=O)(=O)c2cccc(Cl)c2)CC2(CCOCC2)N1CC1CC1
52 | 712 | CCc1ccc(NC(=O)Nc2ccc3nnc(C)n3c2)cc1
53 | 622 | O=C(Nc1ccccc1)N1CCCC1c1nncn1C1CCCC1 (stereo not drawn)
54 | 1070 | Cc1cc(C(=O)OCc2cc(-c3ccc4c(c3)OCCO4)on2)c(C)o1
55 | 861 | CCN(CC)C(=O)Cn1nc(-c2nc(-c3ccc(F)cc3)no2)ccc1=O
56 | 840 | CCCc1sc(NC(=O)Cn2nc3c(cc2=O)CCCC3)nc1C(=O)OC
57 | 731 | CC(C)c1ccc(-n2nc(N3CCN(C(=O)Cn4ccnc4)CC3)ccc2=O)cc1
58 | 854 | Cc1ccc(N2CCC(NC(=O)c3ccc(C#N)cc3)C2=O)cc1C (stereo not drawn)
59 | 650 | COc1ccccc1OCC(O)COC(N)=O (stereo not drawn)
60 | 653 | Cc1cc(C)cc(C(=O)N2CCN(c3nc(C)cc(N4CCOCC4)n3)CC2)c1
61 | 603 | CCOc1ccc(S(=O)(=O)NCC(c2cn(C)c3ccccc23)N(C)C)cc1F (stereo not drawn)
62 | 866 | COc1cccc(-c2cn3ccn(-c4ccc(Br)cc4)c(=O)c3n2)c1
63 | 630 | CCOc1nccnc1N1CCC(N(C)C(=O)Cc2cccnc2)C1 (stereo not drawn)
64 | 853 | COCCN1C(=O)c2cc(-c3ccc(OC)cc3)nn2CC1(C)C(=O)NCc1ccccc1OC (stereo not drawn)
65 | 876 | O=C(Nc1ccc(F)c(Cl)c1)C1CCCN(S(=O)(=O)c2c[nH]c(C(=O)N3CCCC3)c2)C1 (stereo not drawn)
66 | 813 | Cc1ccc(N2CN(CC(=O)Nc3ccccc3C)S(=O)(=O)c3cccnc32)cc1

Row | RP-LC retention time [s] | SMILES
67 | 583 | O=C(NCCCN1CCCC1=O)c1ccc(CN2CC(=O)N3CCCC3C2=O)cc1 (stereo not drawn)
68 | 1310 | Cc1cc(C)c(CNS(=O)(=O)c2cc(-c3nc(C)c(C)s3)cs2)c(C)c1
69 | 1310 | O=C(NCC1(c2nc(-c3ccccc3)cs2)CCOCC1)c1cccc(-c2noc(C(F)(F)F)n2)c1
70 | 560 | CCCN1CCN(C(=O)c2ccc(-c3ccc(N4CCSCC4)nc3)cc2)CC1
71 | 1100 | Cc1ccc(C)c(NC(=O)c2cn(-c3cc(-c4nc(C5CC5)no4)ccn3)cn2)c1
72 | 738 | O=C(NCCc1cccs1)C1CCN(C(=O)c2ncn3c2COC(c2ccccc2)C3)CC1 (stereo not drawn)
73 | 774 | O=C(Nc1cc(F)ccc1F)C1CCCN(c2ncnc3c2nc2n3CCCCC2)C1 (stereo not drawn)
74 | 771 | CCOC(=O)C1CCN(C(=O)c2sc(Nc3ccc(F)cn3)nc2C)CC1
75 | 955 | Cc1cccc(S(=O)(=O)N2CCc3c(c(-c4nnc(-c5ccc(F)cc5)o4)nn3C)C2)c1
76 | 871 | Cc1nnc2ccc(-c3noc(-c4ccc5c(c4)OCO5)n3)cn12
77 | 729 | Cc1ccccc1-c1noc(-c2cccn(CC(=O)NCC3CCCO3)c2=O)n1 (stereo not drawn)
78 | 920 | Cc1ccc(NC(=O)C(C)Oc2cc(C(F)(F)F)c3c(C)nn(C)c3n2)c(C)c1 (stereo not drawn)
79 | 731 | CC(=O)N1CCC(C(=O)Nc2nc(C(C)(C)C)cs2)CC1
80 | 826 | Cc1ccc(CS(=O)(=O)N2CCC(c3cc(N)on3)CC2)cc1C
81 | 586 | Cc1nnc(N2CCC(C(=O)NCCN(C)C)CC2)c2nn(-c3ccc(Cl)cc3)c(C)c12
82 | 661 | Cc1ccc(CNC(=O)Cn2c(N3CCCCC3)nc(C)cc2=O)cc1
83 | 599 | COc1ccccc1N1CCN(CCNC(=O)C(=O)NC2CCCCC2)CC1
84 | 798 | CCc1cc(=O)n(CC(=O)Nc2ccc(C)c(C)c2)c(N2CCOCC2)n1
85 | 603 | COc1ccccc1N1CCN(C(=O)c2cn3ccccc3n2)CC1
86 | 760 | Cn1c(C2CCN(S(=O)(=O)c3ccc(Cl)cc3)C2)nc2cccnc21 (stereo not drawn)
87 | 888 | CCOc1ccc(N(C)C(=O)Cn2cccc2-c2nnc(C3CC3)o2)cc1

Row | SMILES | RP-LC retention time [s]
88 | C[C@]12CCC3[C@@H](CC[C@@H]4C[C@H](O)CC[C@]34C)[C@@H]1CCC2=O (stereo partly drawn) | 992
